Experimental findings from patent US20130287890A1, “INHIBITOR OF THE PRODUCTION OF ADVANCED GLYCATION END PRODUCTS” (UENO FINE CHEMICALS INDUSTRY, LTD., priority 2012, published 2013) are described below.

The subject of this test is fluorescent AGEs. Nature of the test: Quantitative determination of fluorescent AGEs after reaction at 37° C. for 42 days. Format: biochemical. As to conditions: for Fluorescent AGEs: 37° C., 42 days. Here is the method:
After 0.4 g of a high molecular weight fraction and 8 mL of 6N hydrochloric acid were charged in an ampule and the air in the ampule was replaced with nitrogen, hydrolysis was performed at 110° C. for 16 hours in a heat block. After reaction, 8 mL of 5N sodium hydroxide was added, and pH was adjusted using 1N hydrochloric acid and 1N sodium hydroxide to make pH within a range of 7.2 to 7.6. Then, the solution was filtered through a 0.45 μm filter. Using the thus obtained filtrate as a sample, fluorescent AGEs were quantitatively determined using the following methods. After weighing 2.5 mg of a standard substance perylene, the standard substance perylene was fully dissolved in 10 mL of deaerated ethanol added thereto to prepare a perylene solution. The perylene solution diluted to the concentration of 10 μM was exposed to excitation light with a wavelength of 386 nm and then the area was calculated by measuring a fluorescence intensity ranging from 410 to 600 nm. Meanwhile, the sample was exposed to excitation light with a wavelength of 380 nm and then the area was calculated by measuring a fluorescence intensity ranging from 400 to 600 nm. By considering the area measurement value of the sample as a value relative to the area value of the 10 μM perylene solution, fluorescent AGEs were determined.
Amino acid or biological protein, carbohydrates and a phosphate buffer solution were charged in a 50 mL polypropylene centrifuge tube in each amount shown in Table 8, followed by sealing and stirring, and then the mixture was reacted in an incubator at 37° C. for 42 days. Next, the reactant was fractionated by centrifugation at 3,000 rpm for 3 hours using an ultrafiltration unit (VIVA SPIN 20, manufactured by Sartorius Corporation). The obtained low molecular weight fraction was used as a sample for determination of 3-DG, while the obtained high molecular weight fraction was used as a sample for the determination of fluorescent AGEs. Amino acid, biological protein and carbohydrates used are as follows:
In the same manner as in Test Example 1, except that the low molecular weight fraction prepared as mentioned above was used as a sample, quantitative determination of 3-DG was performed. In the same manner as in Test Example 2, except that the high molecular weight fraction prepared as mentioned above was used as a sample, determination of fluorescent AGEs was performed.
Amino acid, carbohydrates and a phosphate buffer solution were charged in a 50 mL polypropylene centrifuge tube in each amount shown in Table 10, followed by sealing and stirring, and then the mixture was reacted in an incubator at 37° C. for 42 days. Next, the reactant was filtered through a 0.2 μm filter and the obtained filtrate was used as a sample. Amino acid and carbohydrates used are as follows:
After weighing 2.5 mg of a standard substance perylene, the standard substance perylene was fully dissolved in 50 mL of deaerated ethanol added thereto to prepare a perylene solution. The perylene solution diluted to the concentration of 10 μM was exposed to excitation light with a wavelength of 386 nm and then the area was calculated by measuring a fluorescence intensity ranging from 410 to 600 nm. Meanwhile, the sample was exposed to excitation light with a wavelength of 380 nm and then the area was calculated by measuring a fluorescence intensity ranging from 400 to 600 nm. By considering the area measurement value of the sample as a value relative to the area value of the 10 μM perylene solution, fluorescent AGEs were quantitatively determined.
Biological proteins, carbohydrates and a phosphate buffer solution are charged in a 50 mL polypropylene centrifuge tube in each amount shown in Table 12, followed by sealing and stirring, and then the mixture was reacted in an incubator at 37° C. for 42 days. Next, the reactant was fractionated by centrifugation at 3,000 rpm for 3 hours using an ultrafiltration unit (VIVA SPIN 20, manufactured by Sartorius Corporation). […]

The mark [1] stands for this setting: Test Example 3, amino acid (lysine:arginine 1:1) 0.4 g + glucose 1.8 g or maltitol 3.4 g.
Where [2] appears, read: Test Example 3, bovine serum albumin 0.4 g + glucose 1.8 g or maltitol 3.4 g.
Where [3] appears, read: Test Example 4, amino acid 0.4 g + carbohydrate 1.8 g.
Setting [4] is: Test Example 5, bovine serum albumin 0.4 g + carbohydrate 1.8 g.
[5] abbreviates: Test Example 5, human serum albumin 0.4 g + carbohydrate 1.8 g.
[6] abbreviates: Test Example 5, γ-globulin 0.4 g + carbohydrate 1.8 g.
Setting [7] is: Test Example 6, collagen 0.015 g + carbohydrate 1.8 g, hydrolysed high molecular weight fraction.

As to `O=C[C@H](O)[C@@H](O)[C@H](O)[C@H](O)CO` [Glucose], the “Fluorescent AGEs” value by setting is: under setting [1], 91 nmol/1 g of protein; under setting [2], 46 nmol/1 g of protein; under setting [3], 17.4 nmol/1 mL of reaction solution; under setting [4], 11 nmol/1 mL of reaction solution; under setting [5], 8.6 nmol/1 mL of reaction solution; under setting [6], 3.0 nmol/1 mL of reaction solution. Moreover, the “Fluorescent AGEs” value under setting [7] is 1.4 nmol/1 mL of reaction solution.

Take `OC[C@@H](O)[C@@H](O)[C@H](O)[C@@H](O)CO` [Sorbitol]: the “Fluorescent AGEs” value runs as follows: under setting [3], 0.4 nmol/1 mL of reaction solution; under setting [4], 2.0 nmol/1 mL of reaction solution; under setting [5], 5.4 nmol/1 mL of reaction solution; under setting [6], 1.3 nmol/1 mL of reaction solution; under setting [7], 0.5 nmol/1 mL of reaction solution. Further, the “production of fluorescent AGEs” value was “decreased” (Test Example 4, amino acid, compared with sections containing glucose and fructose); “decreased” (Test Example 5, bovine serum albumin, human serum albumin, γ-globulin, compared with sections containing fructose); “decreased” (Test Example 5, bovine serum albumin, human serum albumin, γ-globulin, compared with sections containing glucose); “decreased” (Test Example 6, collagen, compared with sections containing glucose and fructose).

For `O=C(CO)[C@@H](O)[C@H](O)[C@H](O)CO` [Fructose], the “Fluorescent AGEs” value by setting is: under setting [3], 11.4 nmol/1 mL of reaction solution; under setting [4], 28 nmol/1 mL of reaction solution; under setting [5], 25.2 nmol/1 mL of reaction solution; under setting [6], 17.3 nmol/1 mL of reaction solution; under setting [7], 2.4 nmol/1 mL of reaction solution.

As for `OC[C@@H](O)[C@@H](O[C@H]1O[C@H](CO)[C@@H](O)[C@H](O)[C@H]1O)[C@H](O)[C@@H](O)CO` [Maltitol], the “Fluorescent AGEs” value is, setting by setting: under setting [1], 2 nmol/1 g of protein; under setting [2], 7 nmol/1 g of protein. For the same compound, the “production of AGEs” value (Test Example 3, amino acids and bovine serum albumin, compared with sections containing glucose) was “decreased”.
